Experimental data as given in the supplement of paper PMC4862054.
Where “and” joins values, the source holds several entries; their conditions need not be identical. Equal values may be shown once.

How the values were obtained:
Conditions in all cases: incubation time: 72 h
MDA-MB-468 [1] = assay: normalised viability (% of control), CellTiter-Blue; higher = more viable cells (100 = DMSO, 0 = benzethonium chloride kill control)
Protocol: (§1)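 DSRT, CellTiter-Blue viability, 72 h incubation. Signal is normalised to DMSO and benzethonium chloride controls. Value is the normalised response at dose 1.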

CAL-85-1 [2] = assay: as above
Protocol: as §1

HCC1937 [3] = assay: as above
Protocol: as §1

HCC1599 [4] = assay: as above
Protocol: as §1

BT-474 [5] = assay: as above
Protocol: as §1

CAL-148 [6] = assay: as above
Protocol: as §1

MDA-MB-453 [7] = assay: as above
Protocol: as §1

BT-549 [8] = assay: as above
Protocol: as §1

MDA-MB-436 [9] = assay: as above
Protocol: as §1

CAL-120 = assay: drug sensitivity score (DSS), CellTiter-Blue viability (DSS (AUC-based score)); higher = stronger viability inhibition; extreme values may be limits of the assay
Protocol: (§2)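 DSRT with the CellTiter-Blue (resazurin reduction) viability readout, fluorescence 560/590 nm, 72 h incubation. Plates were normalised to DMSO and benzethonium chloride controls. DSS is computed from the area under the fitted dose-response curve (5 or 9 concentrations).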

HDQ-P1 = assay: as above
Protocol: as §2

CAL-51 = assay: as above
Protocol: as §2

HCC1143 = assay: as above
Protocol: as §2

MDA-MB-231 = assay: as above
Protocol: as §2

MDA-MB-468 [10] = assay: as above
Protocol: as §2

DU-4475 = assay: as above
Protocol: as §2

CAL-85-1 [11] = assay: as above
Protocol: as §2

HCC1937 [12] = assay: as above
Protocol: as §2

HCC1599 [13] = assay: as above
Protocol: as §2

BT-474 [14] = assay: as above
Protocol: as §2

SK-BR-3 = assay: as above
Protocol: as §2

Hs578T = assay: as above
Protocol: as §2

CAL-148 [15] = assay: as above
Protocol: as §2

MFM-223 = assay: as above
Protocol: as §2

MDA-MB-453 [16] = assay: as above
Protocol: as §2

BT-549 [17] = assay: as above
Protocol: as §2

MDA-MB-436 [18] = assay: as above
Protocol: as §2

| SMILES | normalised viability (MDA-MB-468 [1]; 1 nM) | normalised viability (CAL-85-1 [2]; 1 nM) | normalised viability (HCC1937 [3]; 1 nM) | normalised viability (HCC1599 [4]; 1 nM) | normalised viability (BT-474 [5]; 1 nM) | normalised viability (CAL-148 [6]; 1 nM) | normalised viability (MDA-MB-453 [7]; 1 nM) | normalised viability (BT-549 [8]; 1 nM) | normalised viability (MDA-MB-436 [9]; 1 nM) | drug sensitivity score (CAL-120) | drug sensitivity score (HDQ-P1) | drug sensitivity score (CAL-51) | drug sensitivity score (HCC1143) | drug sensitivity score (MDA-MB-231) | drug sensitivity score (MDA-MB-468 [10]) | drug sensitivity score (DU-4475) | drug sensitivity score (CAL-85-1 [11]) | drug sensitivity score (HCC1937 [12]) | drug sensitivity score (HCC1599 [13]) | drug sensitivity score (BT-474 [14]) | drug sensitivity score (SK-BR-3) | drug sensitivity score (Hs578T) | drug sensitivity score (CAL-148 [15]) | drug sensitivity score (MFM-223) | drug sensitivity score (MDA-MB-453 [16]) | drug sensitivity score (BT-549 [17]) | drug sensitivity score (MDA-MB-436 [18]) | normalised viability (MDA-MB-468 [1]; 0.1 nM) [%] | normalised viability (CAL-85-1 [2]; 0.1 nM) [%] | normalised viability (HCC1937 [3]; 0.1 nM) [%] | normalised viability (HCC1599 [4]; 0.1 nM) [%] | normalised viability (BT-474 [5]; 0.1 nM) [%] | normalised viability (CAL-148 [6]; 0.1 nM) [%] | normalised viability (MDA-MB-453 [7]; 0.1 nM) [%] | normalised viability (BT-549 [8]; 0.1 nM) [%] | normalised viability (MDA-MB-436 [9]; 0.1 nM) [%] |
| --- | --- | --- | --- | --- | --- | --- | --- | --- | --- | --- | --- | --- | --- | --- | --- | --- | --- | --- | --- | --- | --- | --- | --- | --- | --- | --- | --- | --- | --- | --- | --- | --- | --- | --- | --- | --- |
| Cc1c(CN2CCN(C(=O)[C@H](C)O)CC2)sc2c(N3CCOCC3)nc(-c3cnc(N)nc3)nc12 [GDC-0980] | 99.6% | 83.5% | 88.1% | 95.5% | 103% | 106% | 96.5% | 91.7% | 84.5% | 17.5 | 19.2 | 18.9 | 15.9 | 18.5 | 12.3 | 12.6 | 14.8 | 14.1 | 15.1 | 15.6 | 22.4 | 15.4 | 17.2 | 19.2 | 22.8 | 14.7 | 10.4 |  |  |  |  |  |  |  |  |  |
| Nc1cccc2c1CN(C1CCC(=O)NC1=O)C2=O (configuration not stated) [Lenalidomide] | 99.6% and 98.9% | 79.2% and 80.7% | 90.1% and 78% | 92.1% and 98.5% | 93.9% and 73.5% | 92.4% and 102% | 87.5% and 104% | 108% and 115% | 97.6% and 82.2% | 0 | 0 | 0 | 0 | 0 | 0 | 0 | 0 | 0 | 0 | 0 | 0 | 0 | 0 | 0 | 0 | 0 | 0 |  |  |  |  |  |  |  |  |  |
| C[C@]12O[C@H](C[C@]1(O)CO)n1c3ccccc3c3c4c(c5c6ccccc6n2c5c31)CNC4=O [Lestaurtinib] |  |  |  |  |  |  |  |  |  | 7.43 | 0 | 2.4 | 3.46 | 0 | 0 | 8.26 | 3.82 | 7.15 | 2.58 | 0 | 1.47 | 0 | 0 | 5.87 | 6.19 | 1.24 | 3.43 | 126 | 100 | 96.4 | 109 | 100 | 118 | 113 | 120 | 126 |
| O=C1c2c(O)ccc(O)c2C(=O)c2c(NCCNCCO)ccc(NCCNCCO)c21 [Mitoxantrone] |  |  |  |  |  |  |  |  |  | 9.16 | 8.81 | 17.6 | 6.5 | 11.8 | 9.75 | 22.7 | 5.25 | 23.1 | 4.36 | 6.48 | 15.3 | 4.05 | 17.4 | 2.58 | 4.9 | 4.76 | 3.16 | 90.7 | 80.5 | 92.5 | 92.1 | 75.9 | 108 | 90.6 | 90.5 | 121 |
| Nc1ccccc1NC(=O)c1ccc(CNc2nccc(-c3cccnc3)n2)cc1 [Mocetinostat] | 92% | 91.8% | 90.8% | 92.2% | 107% | 107% | 92.5% | 117% | 99.2% | 13.4 | 2.86 | 5.94 | 6.77 | 6.93 | 7.64 | 12.9 | 8.63 | 7.41 | 10.1 | 2.91 | 10.9 | 6.43 | 8.31 | 3.47 | 12.8 | 7.6 | 9.06 |  |  |  |  |  |  |  |  |  |
| Cc1ccc(Nc2nccc(N(C)c3ccc4c(C)n(C)nc4c3)n2)cc1S(N)(=O)=O [Pazopanib] | 106% | 93.6% | 77.9% | 103% | 93.2% | 89.3% | 106% | 110% | 95.8% | 0 | 1.38 | 0 | 0 | 0 | 0 | 0 | 0 | 0 | 0 | 0 | 0 | 0 | 0 | 11.6 | 6.67 | 3.13 | 4.09 |  |  |  |  |  |  |  |  |  |
